Experimental data reported in ChEMBL document CHEMBL4507324 (2021).

Key:
[1] = molecular target: Mitogen-activated protein kinase 14 (Homo sapiens) (UniProt Q16539); conditions: Compound concentration 100.0 nM
[2] = molecular target: Tyrosine-protein kinase ABL1 (Homo sapiens) (UniProt P00519); conditions: Compound concentration 100.0 nM
[3] = molecular target: Mitogen-activated protein kinase 11 (Homo sapiens, UniProt Q15759); assay: NanoBRET (SGC-Frankfurt) (MAPK11)
[4] = molecular target: Mu-type opioid receptor (Homo sapiens) (UniProt P35372); conditions: Compound concentration 10.0 uM
[5] = molecular target: Delta-type opioid receptor (Homo sapiens) (UniProt P41143); conditions: Compound concentration 10.0 uM
Delta-type opioid receptor (Homo sapiens), sequence (P41143 whole entry): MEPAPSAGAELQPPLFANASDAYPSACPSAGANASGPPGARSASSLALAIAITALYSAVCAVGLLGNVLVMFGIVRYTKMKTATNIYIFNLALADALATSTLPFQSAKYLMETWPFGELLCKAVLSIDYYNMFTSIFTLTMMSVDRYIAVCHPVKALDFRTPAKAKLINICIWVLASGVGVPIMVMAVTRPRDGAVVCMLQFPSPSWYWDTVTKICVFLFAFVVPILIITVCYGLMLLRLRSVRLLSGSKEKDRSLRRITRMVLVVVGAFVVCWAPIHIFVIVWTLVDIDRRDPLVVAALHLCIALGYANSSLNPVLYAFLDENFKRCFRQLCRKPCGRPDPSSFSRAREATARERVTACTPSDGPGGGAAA

[6] = molecular target: 5-hydroxytryptamine receptor 1B (Homo sapiens) (UniProt P28222); conditions: Compound concentration 10.0 uM
[7] = molecular target: Serine/threonine-protein kinase Chk2 (Homo sapiens, UniProt O96017); assay: NanoBRET (SGC-Frankfurt) (CHEK2)
Serine/threonine-protein kinase Chk2, sequence (O96017 whole entry): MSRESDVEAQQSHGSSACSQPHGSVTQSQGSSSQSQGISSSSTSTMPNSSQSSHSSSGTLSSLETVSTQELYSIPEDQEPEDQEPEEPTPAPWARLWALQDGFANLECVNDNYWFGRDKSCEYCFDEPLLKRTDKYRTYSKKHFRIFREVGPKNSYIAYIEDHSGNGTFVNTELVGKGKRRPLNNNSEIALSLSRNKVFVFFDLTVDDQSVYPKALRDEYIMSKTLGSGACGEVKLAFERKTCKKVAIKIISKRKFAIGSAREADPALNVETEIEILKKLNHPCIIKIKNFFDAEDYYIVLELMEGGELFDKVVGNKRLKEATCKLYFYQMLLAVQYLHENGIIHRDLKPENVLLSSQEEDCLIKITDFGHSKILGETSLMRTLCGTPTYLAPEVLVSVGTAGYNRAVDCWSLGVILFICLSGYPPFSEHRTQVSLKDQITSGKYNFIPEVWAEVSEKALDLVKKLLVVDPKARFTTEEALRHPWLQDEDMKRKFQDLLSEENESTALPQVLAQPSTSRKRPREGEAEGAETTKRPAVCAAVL

[8] = molecular target: Alpha-2A adrenergic receptor (Homo sapiens) (UniProt P08913); conditions: Compound concentration 10.0 uM
[9] = molecular target: 5-hydroxytryptamine receptor 5A (Homo sapiens) (UniProt P47898); conditions: Compound concentration 10.0 uM
5-hydroxytryptamine receptor 5A (Homo sapiens), sequence (P47898 whole entry): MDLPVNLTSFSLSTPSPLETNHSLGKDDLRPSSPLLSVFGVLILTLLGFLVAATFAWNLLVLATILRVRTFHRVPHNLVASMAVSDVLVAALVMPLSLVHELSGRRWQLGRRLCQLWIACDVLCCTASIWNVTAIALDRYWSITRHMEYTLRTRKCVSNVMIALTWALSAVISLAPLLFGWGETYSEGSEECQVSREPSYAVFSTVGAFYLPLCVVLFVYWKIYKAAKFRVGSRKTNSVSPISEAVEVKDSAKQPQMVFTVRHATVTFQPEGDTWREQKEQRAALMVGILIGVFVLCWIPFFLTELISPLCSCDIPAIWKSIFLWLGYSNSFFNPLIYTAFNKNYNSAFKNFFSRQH

[10] = molecular target: Alpha-2C adrenergic receptor (Homo sapiens) (UniProt P18825); conditions: Compound concentration 10.0 uM
[11] = molecular target: Sodium-dependent noradrenaline transporter (Homo sapiens) (UniProt P23975); conditions: Compound concentration 10.0 uM
[12] = molecular target: 5-hydroxytryptamine receptor 2A (Homo sapiens) (UniProt P28223); conditions: Compound concentration 10.0 uM
5-hydroxytryptamine receptor 2A (Homo sapiens), sequence (P28223 whole entry): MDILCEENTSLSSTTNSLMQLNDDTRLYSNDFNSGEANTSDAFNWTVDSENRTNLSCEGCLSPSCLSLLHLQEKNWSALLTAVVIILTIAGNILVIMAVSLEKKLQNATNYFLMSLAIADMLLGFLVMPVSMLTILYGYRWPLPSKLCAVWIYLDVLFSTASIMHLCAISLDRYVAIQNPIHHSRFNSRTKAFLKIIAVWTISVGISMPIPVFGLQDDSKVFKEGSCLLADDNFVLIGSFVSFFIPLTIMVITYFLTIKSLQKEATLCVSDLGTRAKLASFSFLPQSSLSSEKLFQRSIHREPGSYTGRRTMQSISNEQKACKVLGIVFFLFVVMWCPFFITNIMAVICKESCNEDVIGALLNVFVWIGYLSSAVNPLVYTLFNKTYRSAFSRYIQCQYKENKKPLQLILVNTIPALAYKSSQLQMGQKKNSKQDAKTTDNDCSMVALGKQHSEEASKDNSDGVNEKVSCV

[13] = molecular target: Sigma non-opioid intracellular receptor 1 (Homo sapiens) (UniProt Q99720); conditions: Compound concentration 10.0 uM
Sigma non-opioid intracellular receptor 1 (Homo sapiens), sequence (Q99720 whole entry): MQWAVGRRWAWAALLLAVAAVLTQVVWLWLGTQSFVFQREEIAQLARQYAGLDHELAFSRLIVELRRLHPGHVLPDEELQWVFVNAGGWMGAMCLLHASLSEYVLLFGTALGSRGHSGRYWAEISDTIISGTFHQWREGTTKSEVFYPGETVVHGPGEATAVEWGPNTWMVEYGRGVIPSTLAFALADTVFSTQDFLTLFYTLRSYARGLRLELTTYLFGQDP

[14] = molecular target: Histamine H1 receptor (Homo sapiens) (UniProt P35367); conditions: Compound concentration 10.0 uM
Histamine H1 receptor (Homo sapiens), sequence (P35367 whole entry): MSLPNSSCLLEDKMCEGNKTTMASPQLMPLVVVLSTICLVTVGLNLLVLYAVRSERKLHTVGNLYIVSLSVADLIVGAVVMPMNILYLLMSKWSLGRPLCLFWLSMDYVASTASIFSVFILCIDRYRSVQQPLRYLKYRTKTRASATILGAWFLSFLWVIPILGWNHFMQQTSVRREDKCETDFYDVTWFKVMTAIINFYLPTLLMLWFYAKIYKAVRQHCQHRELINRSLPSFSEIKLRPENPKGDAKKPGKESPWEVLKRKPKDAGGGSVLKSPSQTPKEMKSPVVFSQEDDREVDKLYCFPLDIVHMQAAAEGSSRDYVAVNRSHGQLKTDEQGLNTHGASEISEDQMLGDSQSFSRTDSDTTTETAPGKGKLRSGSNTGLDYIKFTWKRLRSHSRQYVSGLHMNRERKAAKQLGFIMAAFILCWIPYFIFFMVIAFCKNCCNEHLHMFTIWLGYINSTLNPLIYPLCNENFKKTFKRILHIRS

[15] = molecular target: Muscarinic acetylcholine receptor M2 (Homo sapiens) (UniProt P08172); conditions: Compound concentration 10.0 uM
[16] = molecular target: Sodium-dependent dopamine transporter (Homo sapiens) (UniProt Q01959); conditions: Compound concentration 10.0 uM
Sodium-dependent dopamine transporter (Homo sapiens), sequence (Q01959 whole entry): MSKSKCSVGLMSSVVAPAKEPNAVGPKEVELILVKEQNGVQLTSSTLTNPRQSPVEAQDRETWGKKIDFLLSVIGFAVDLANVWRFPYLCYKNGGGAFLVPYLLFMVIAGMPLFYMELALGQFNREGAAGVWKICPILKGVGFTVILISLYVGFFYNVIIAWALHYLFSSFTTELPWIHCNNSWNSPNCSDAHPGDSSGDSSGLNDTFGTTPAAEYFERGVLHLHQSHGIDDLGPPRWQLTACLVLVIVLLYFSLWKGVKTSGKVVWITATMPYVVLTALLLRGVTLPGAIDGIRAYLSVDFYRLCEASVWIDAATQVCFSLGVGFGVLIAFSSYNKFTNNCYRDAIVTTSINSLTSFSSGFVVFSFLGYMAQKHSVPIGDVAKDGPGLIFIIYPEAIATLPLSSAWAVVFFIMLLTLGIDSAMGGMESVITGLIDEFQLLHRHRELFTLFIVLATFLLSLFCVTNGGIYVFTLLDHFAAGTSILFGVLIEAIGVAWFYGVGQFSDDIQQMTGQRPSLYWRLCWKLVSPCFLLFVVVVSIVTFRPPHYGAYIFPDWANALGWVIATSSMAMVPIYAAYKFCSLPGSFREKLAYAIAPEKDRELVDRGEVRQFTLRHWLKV

[17] = molecular target: 5-hydroxytryptamine receptor 1D (Homo sapiens) (UniProt P28221); conditions: Compound concentration 10.0 uM
5-hydroxytryptamine receptor 1D (Homo sapiens), sequence (P28221 whole entry): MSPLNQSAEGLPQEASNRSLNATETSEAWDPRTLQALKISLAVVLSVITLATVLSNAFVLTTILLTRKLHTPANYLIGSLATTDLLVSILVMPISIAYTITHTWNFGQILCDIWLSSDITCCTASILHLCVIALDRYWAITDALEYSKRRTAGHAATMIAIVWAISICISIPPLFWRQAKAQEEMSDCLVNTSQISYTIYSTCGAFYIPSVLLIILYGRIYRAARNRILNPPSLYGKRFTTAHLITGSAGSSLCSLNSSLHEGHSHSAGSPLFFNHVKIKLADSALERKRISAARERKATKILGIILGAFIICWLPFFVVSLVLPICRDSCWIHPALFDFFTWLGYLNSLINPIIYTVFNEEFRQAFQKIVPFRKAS

Tyrosine-protein kinase ABL1 (Homo sapiens), sequence (P00519 whole entry): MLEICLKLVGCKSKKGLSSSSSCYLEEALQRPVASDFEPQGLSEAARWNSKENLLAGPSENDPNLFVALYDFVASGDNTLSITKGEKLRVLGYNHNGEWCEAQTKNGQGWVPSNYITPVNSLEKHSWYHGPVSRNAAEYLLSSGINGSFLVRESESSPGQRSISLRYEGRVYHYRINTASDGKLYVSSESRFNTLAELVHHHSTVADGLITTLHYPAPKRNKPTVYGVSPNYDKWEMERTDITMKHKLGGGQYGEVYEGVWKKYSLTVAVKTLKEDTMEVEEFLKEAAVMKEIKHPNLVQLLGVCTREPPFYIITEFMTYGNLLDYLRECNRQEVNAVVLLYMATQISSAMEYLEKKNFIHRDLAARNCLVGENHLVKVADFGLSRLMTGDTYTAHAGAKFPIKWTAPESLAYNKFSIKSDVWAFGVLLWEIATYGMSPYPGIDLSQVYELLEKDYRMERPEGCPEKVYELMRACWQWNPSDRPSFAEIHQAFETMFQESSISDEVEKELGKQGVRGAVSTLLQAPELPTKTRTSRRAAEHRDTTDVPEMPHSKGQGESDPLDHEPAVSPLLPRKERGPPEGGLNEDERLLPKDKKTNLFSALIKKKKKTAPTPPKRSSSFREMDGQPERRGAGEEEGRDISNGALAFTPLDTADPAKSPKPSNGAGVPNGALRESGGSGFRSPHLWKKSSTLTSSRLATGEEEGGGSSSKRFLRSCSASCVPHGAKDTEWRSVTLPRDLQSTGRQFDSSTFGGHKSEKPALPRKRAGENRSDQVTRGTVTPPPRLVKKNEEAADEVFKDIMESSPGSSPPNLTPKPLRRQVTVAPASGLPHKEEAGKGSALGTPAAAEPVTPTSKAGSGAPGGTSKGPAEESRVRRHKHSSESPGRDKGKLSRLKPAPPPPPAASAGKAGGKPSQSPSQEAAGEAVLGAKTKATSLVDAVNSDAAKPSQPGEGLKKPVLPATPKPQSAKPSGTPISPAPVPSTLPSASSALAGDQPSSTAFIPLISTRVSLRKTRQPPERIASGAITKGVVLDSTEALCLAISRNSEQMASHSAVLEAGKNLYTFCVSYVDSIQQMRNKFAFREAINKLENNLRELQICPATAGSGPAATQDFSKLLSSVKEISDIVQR
Mitogen-activated protein kinase 11, sequence (Q15759 whole entry): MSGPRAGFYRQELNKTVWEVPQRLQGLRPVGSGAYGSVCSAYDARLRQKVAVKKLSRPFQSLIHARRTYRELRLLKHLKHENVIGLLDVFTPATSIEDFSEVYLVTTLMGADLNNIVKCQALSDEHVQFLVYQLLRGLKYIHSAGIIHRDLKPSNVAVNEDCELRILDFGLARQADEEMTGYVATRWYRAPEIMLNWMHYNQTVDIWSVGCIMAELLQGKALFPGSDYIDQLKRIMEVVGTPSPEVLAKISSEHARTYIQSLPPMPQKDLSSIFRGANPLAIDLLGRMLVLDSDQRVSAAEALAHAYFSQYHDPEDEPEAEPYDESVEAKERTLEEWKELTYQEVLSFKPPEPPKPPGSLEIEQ

Row | SMILES | residual activity [1] [%] | residual activity [2] [%] | IC50 [3] | inhibition [4] [%] | inhibition [5] [%] | inhibition [6] [%] | IC50 [7] [µM] | inhibition [8] [%] | inhibition [9] [%] | inhibition [10] [%] | inhibition [11] [%] | inhibition [12] [%] | inhibition [13] [%] | inhibition [14] [%] | inhibition [15] [%] | inhibition [16] [%] | inhibition [17] [%]
1 | CS(=O)(=O)N1CCCC(NC(=O)[C@H](CCC2CCCCC2)NC(=O)c2ccc(CNc3ncnc4c3nnn4-c3ccccc3)cc2)C1 (some centres not stated) [SR-301] | 100 | 88 | 1.63 µM (not active) | – | – | – | – | – | – | – | – | – | – | – | – | – | –
2 | CS(=O)(=O)N1CCCC(NC(=O)[C@H](CCC2CCCCC2)NC(=O)c2ccc(CNC(=O)c3cnc4ccccn34)cc2)C1 (some centres not stated) [SR-302] | – | – | – | 45.3 | 8.18 | 10.9 | > 25 | 7.22 | 3.1 | 5.25 | 3 | 3.03 | 32 | 3.62 | 18.5 | 11.5 | 18.9
